Data on four compounds can be found in patent US20220387608A1, “ADRENOMEDULLIN-ANALOGUES FOR LONG-TERM STABILIZATION AND THEIR USE” (Bayer Aktiengesellschaft, priority 2019, published 2022).

Broadly, the Emax is the maximal effect, on the per cent scale that the assay sets. The term EC50 denotes the concentration that produces a half-maximal response. A high value points to lower potency in that assay.

For the assay, the target named is T1, AM1R (Homo sapiens, UniProt O60895+Q16602).
T1 construct: EYFP; ECFP; expressed in transfected cells; host or cells: HEK-293 (transient co-transfection)
T1 sequence (Q16602 23-461): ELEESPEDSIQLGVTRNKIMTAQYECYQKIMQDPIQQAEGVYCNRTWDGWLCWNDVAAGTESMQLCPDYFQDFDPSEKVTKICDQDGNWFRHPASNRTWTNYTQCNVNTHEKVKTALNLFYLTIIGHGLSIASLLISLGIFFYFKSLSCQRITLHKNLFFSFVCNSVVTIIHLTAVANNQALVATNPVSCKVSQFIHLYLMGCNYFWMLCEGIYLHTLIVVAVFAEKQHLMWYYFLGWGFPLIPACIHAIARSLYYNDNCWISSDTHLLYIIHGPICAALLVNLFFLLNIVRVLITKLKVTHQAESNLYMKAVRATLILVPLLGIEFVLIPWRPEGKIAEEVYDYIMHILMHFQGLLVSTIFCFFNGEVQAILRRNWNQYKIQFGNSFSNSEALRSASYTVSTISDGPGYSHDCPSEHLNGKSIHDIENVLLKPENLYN
T1 sequence (O60895 43-175): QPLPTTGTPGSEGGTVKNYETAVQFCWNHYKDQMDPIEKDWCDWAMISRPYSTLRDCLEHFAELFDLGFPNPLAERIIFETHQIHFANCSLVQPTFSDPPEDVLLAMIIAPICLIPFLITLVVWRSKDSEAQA
In words: Activity determination in vitro: cAMP/CRE-luciferase reporter assay in HEK293 cells transiently co-transfected with CLR and RAMP2. The class given is cell-based. The note with it: for Emax: HEK293, normalized to [G14]ADM(14-52); for EC50: HEK293 with CLR/RAMP2, CRE-luciferase, 3 h stimulation. As to the method:
(1a) Activity Determination of Adrenomedullin Analogues in vitro
Cell Culture HEK-293 cells (human embryonic kidney cells) were cultured in Ham's F-12/DMEM (1/1; v/v) containing 15% FCS under humidified atmosphere at 37° C. and 5% CO2 in 75 cm^2 cell culture flasks.
Cells were cultured in 75 cm^2 flasks to 70-80% confluency. 45 μl Metafectene® Pro was diluted in 900 ρl Ham's F-12/DMEM (1/1; v/v) and incubated for 20 min at room temperature. 9 μg plasmid containing DNA of CLR fused to EYFP and 3 μg plasmid containing DNA of RAMP2 fused to ECFP were dissolved in 900 μl Ham's F-12/DMEM (1/1; v/v). The plasmid solution was mixed with the Metafectene® Pro solution and incubated for 25 min at room temperature. Medium was removed from the cells and replaced by 6 m1 Ham's F-12/DMEM (1/1; v/v) containing 15% FCS. After addition of transfection solution the cells were incubated for 3 h under humidified atmosphere at 37° C. and 5% CO2. For the second transfection 45 μl Metafectene® Pro was diluted in 900 μl Ham's F-12/DMEM (1/1; v/v) and incubated for 20 min at room temperature. 12 μg of pGL4.29[Luc2P/CRE/Hygro] plasmid containing DNA for the luciferase reporter gene luc2P (with CRE promotor region) were dissolved in 900 μl Ham's F-12/DMEM (1/1; v/v). The plasmid solution was mixed with the Metafectene® Pro solution and incubated for 25 min at room temperature. Medium was removed from the cells and replaced by 6 m1 Ham's F-12/DMEM (1/1; v/v) containing 15% FCS. After addition of transfection solution, the cells were incubated under humidified atmosphere at 37° C. and 5% CO2 over night.
For coating of 96-well-plates, 50 μl of a poly-D-lysine solution in DPBS (0.1 mg/ml) were pipetted in each well and incubated for 40 min. After removal of poly-D-lysine, each well was washed with 50 μl DPBS. Transiently transfected cells were detached from the cell culture flask by removal of the medium, 2-fold washing with 5 m1 DPBS and resuspending in 40 m1 Ham's F-12/DMEM (1/1; v/v) containing 15% FCS. 90,000 to 120,000 cells in 150 μl Ham's F-12/DMEM (1/1; v/v) containing 15% FCS were seeded per well and the plates were incubated under humidified atmosphere at 37° C. and 5% CO2 over night.
For each ligand, a serial dilution with eight different concentrations was prepared using Ham's F^12/DMEM (1/1; v/v). Before stimulation, the medium on the cells was replaced by 100 μl Ham's F^12/DMEM (1/1; v/v) and the plates were incubated for 1 h under humidified atmosphere at 37° C. and 5% CO2. For stimulation, the medium was removed and the cells were incubated for 3 h in 80 μl of ligand-solution under humidified atmosphere at 37° C. and 5% CO2. In addition 80 μl of a 5 μM forskolin solution in Ham's F-12/DMEM (1/1; v/v) was used as a positive control and 80 μl of Ham's F-12/DMEM (1/1; v/v) as a negative control. Each concentration and the controls were tested as triplicates.
After 3 h of stimulation, the solutions were removed and the cells were washed with 50 μl of Ham's F-12/DMEM (1/1; v/v) perwell. After 10 m incubation in 30 μl of Ham's F-12/DMEM (1/1; v/v) at room temperature, 30 μl of luciferase-solution (ONE-Glo™ Luciferase Assay System) was added and the luminescence was directly measured using an Infinite M200 (Tecan).
Data analysis of the luminescence measurement was carried out with GraphPad Prism 5. Therefore, the measured luminescence values of each plate were first corrected on the base of the respective average of forskolin stimulation. Afterwards they were normalized to [G14]ADM(14-52), which was used as standard peptide in every assay. After correction and normalization, data was analyzed using non-linear regression giving dose-response curves for each tested ligand.
Background: A reporter such as luciferase makes a cellular process visible.

Positions of bridges follow the written chain, without caps; N, C: chain ends. Residues, ends and D or L forms follow the SMILES beside them.

Compound `CC[C@H](C)[C@H](NC(=O)[C@H](CCC(N)=O)NC(=O)[C@H](Cc1c[nH]cn1)NC(=O)[C@H](C)NC(=O)[C@H](CC(C)C)NC(=O)[C@H](CCCCN)NC(=O)[C@H](CCC(N)=O)NC(=O)[C@@H](NC(=O)[C@@H](NC(=O)[C@@H]1CSSC[C@H](NC(=O)CNC(=O)CN)C(=O)N[C@@H](CCCNC(=N)N)C(=O)N[C@@H](Cc2ccccc2)C(=O)NCC(=O)N[C@@H]([C@@H](C)O)C(=O)N1)[C@@H](C)O)C(C)C)C(=O)N[C@@H](Cc1ccc(O)cc1)C(=O)N[C@@H](CCC(N)=O)C(=O)N[C@@H](Cc1ccccc1)C(=O)N[C@H](C(=O)N[C@@H](CC(=O)O)C(=O)N[C@@H](CCCCN)C(=O)N[C@@H](CC(=O)O)C(=O)N[C@@H](CCCCN)C(=O)N[C@@H](CC(=O)O)C(=O)N[C@@H](CC(N)=O)C(=O)N[C@H](C(=O)N[C@@H](C)C(=O)N1CCC[C@H]1C(=O)N[C@H]1CCCCNC(=O)C[C@@H](C(=O)N2CCC[C@H]2C(=O)N[C@@H](CCC(N)=O)C(=O)NCC(=O)N[C@@H](Cc2ccc(O)cc2)C(N)=O)NC(=O)[C@H]([C@@H](C)CC)NC(=O)[C@H](CCCCN)NC(=O)[C@H](CO)NC1=O)C(C)C)[C@@H](C)O` [Example 1, ((4R,7S,13S,16S,19R)-19-(2-(2-aminoacetamido)acetamido)-13-benzyl-16-(3-guanidinopropyl)-7-((R)-1-hydroxyethyl)-6,9,12,15,18-pentaoxo-1,2-dithia-5,8,11,14,17-pentaazacycloicosane-4-carbonyl)-L-threonyl-ADM(23-43)-((2S,5S,8S,11S,18S)-5-(4-aminobutyl)-18-(λ^2-azaneyl)-8-((S)-sec-butyl)-2-(hydroxymethyl)-3,6,9,13,19-pentaoxo-1,4,7,10,14-pentaazacyclononadecane-11-carbonyl)-L-prolyl-ADM(50-52)] (H-GGCRFGTCTVQKLAHQIYQFTDKDKDNVAPKSKIDPQGY-NH2; disulfide 3-8; lactam 31-35) had a maximum response (Emax) of 102 ± 3% and an EC50 of 3.9 nM.
In the same order, the values of `CC[C@H](C)[C@H](NC(=O)[C@H](CCC(N)=O)NC(=O)[C@H](Cc1c[nH]cn1)NC(=O)[C@H](C)NC(=O)[C@H](CC(C)C)NC(=O)[C@H](CCCCN)NC(=O)[C@H](CCC(N)=O)NC(=O)[C@@H](NC(=O)[C@@H](NC(=O)[C@@H]1CSSC[C@H](NC(=O)CNC(=O)CN)C(=O)N[C@@H](CCCNC(=N)N)C(=O)N[C@@H](Cc2ccccc2)C(=O)NCC(=O)N[C@@H]([C@@H](C)O)C(=O)N1)[C@@H](C)O)C(C)C)C(=O)N[C@@H](Cc1ccc(O)cc1)C(=O)N[C@@H](CCC(N)=O)C(=O)N[C@@H](Cc1ccccc1)C(=O)N[C@H](C(=O)N[C@@H](CC(=O)O)C(=O)N[C@@H](CCCCN)C(=O)N[C@@H](CC(=O)O)C(=O)N[C@@H](CCCCN)C(=O)N[C@@H](CC(=O)O)C(=O)N[C@@H](CC(N)=O)C(=O)N[C@H](C(=O)N[C@@H](C)C(=O)N1CCC[C@H]1C(=O)N[C@H]1CC(=O)NCCCC[C@@H](C(=O)N2CCC[C@H]2C(=O)N[C@@H](CCC(N)=O)C(=O)NCC(=O)N[C@@H](Cc2ccc(O)cc2)C(N)=O)NC(=O)[C@H]([C@@H](C)CC)NC(=O)[C@H](CCCCN)NC(=O)[C@H](CO)NC1=O)C(C)C)[C@@H](C)O` [Example 2, ((4R,7S,13S,16S,19R)-19-(2-(2-aminoacetamido)acetamido)-13-benzyl-16-(3-guanidinopropyl)-7-((R)-1-hydroxyethyl)-6,9,12,15,18-pentaoxo-1,2-dithia-5,8,11,14,17-pentaazacycloicosane-4-carbonyl)-L-threonyl-ADM(23-43)-((3S,6S,9S,12S,20S)-6-(4-aminobutyl)-12-(λ^2-azaneyl)-3-((S)-sec-butyl)-9-(hydroxymethyl)-2,5,8,11,14-pentaoxo-1,4,7,10,15-pentaazacycloicosane-20-carbonyl)-L-prolyl-ADM(50-52)] (H-GGCRFGTCTVQKLAHQIYQFTDKDKDNVAPDSKIKPQGY-NH2; disulfide 3-8; lactam 31-35) are 91 ± 1% and 4.8 nM.
`CC[C@H](C)[C@H](NC(=O)[C@H](CCC(N)=O)NC(=O)[C@H](Cc1c[nH]cn1)NC(=O)[C@H](C)NC(=O)[C@H](CC(C)C)NC(=O)[C@H](CCCCN)NC(=O)[C@H](CCC(N)=O)NC(=O)[C@@H](NC(=O)[C@@H](NC(=O)[C@@H]1CSSC[C@H](NC(=O)CNC(=O)CN)C(=O)N[C@@H](CCCNC(=N)N)C(=O)N[C@@H](Cc2ccccc2)C(=O)NCC(=O)N[C@@H]([C@@H](C)O)C(=O)N1)[C@@H](C)O)C(C)C)C(=O)N[C@@H](Cc1ccc(O)cc1)C(=O)N[C@@H](CCC(N)=O)C(=O)N[C@@H](Cc1ccccc1)C(=O)N[C@H](C(=O)N[C@@H](CC(=O)O)C(=O)N[C@@H](CCCCN)C(=O)N[C@@H](CC(=O)O)C(=O)N[C@@H](CCCCN)C(=O)N[C@@H](CC(=O)O)C(=O)N[C@@H](CC(N)=O)C(=O)N[C@H](C(=O)N[C@@H](C)C(=O)N1CCC[C@H]1C(=O)N[C@H]1CCCCNC(=O)CC[C@@H](C(=O)N2CCC[C@H]2C(=O)N[C@@H](CCC(N)=O)C(=O)NCC(=O)N[C@@H](Cc2ccc(O)cc2)C(N)=O)NC(=O)[C@H]([C@@H](C)CC)NC(=O)[C@H](CCCCN)NC(=O)[C@H](CO)NC1=O)C(C)C)[C@@H](C)O` [Example 3, ((4R,7S,13S,16S,19R)-19-(2-(2-aminoacetamido)acetamido)-13-benzyl-16-(3-guanidinopropyl)-7-((R)-1-hydroxyethyl)-6,9,12,15,18-pentaoxo-1,2-dithia-5,8,11,14,17-pentaazacycloicosane-4-carbonyl)-L-threonyl-ADM(23-43)-((2S,5S,8S,11S,20S)-5-(4-aminobutyl)-20-(λ^2-azaneyl)-8-((S)-sec-butyl)-2-(hydroxymethyl)-3,6,9,14,21-pentaoxo-1,4,7,10,15-pentaazacyclohenicosane-11-carbonyl)-L-prolyl-ADM(50-52)] (H-GGCRFGTCTVQKLAHQIYQFTDKDKDNVAPKSKIEPQGY-NH2; disulfide 3-8; lactam 31-35) displayed an Emax of 93 ± 2% and an EC50 of 16 nM.
`CC[C@H](C)[C@H](NC(=O)[C@H](CCC(N)=O)NC(=O)[C@H](Cc1c[nH]cn1)NC(=O)[C@H](C)NC(=O)[C@H](CC(C)C)NC(=O)[C@H](CCCCN)NC(=O)[C@H](CCC(N)=O)NC(=O)[C@@H](NC(=O)[C@@H](NC(=O)[C@@H]1CSSC[C@H](NC(=O)CNC(=O)[C@@H](N)CCCCNC(=O)CCCCCCCCCCCCCCCCC(=O)O)C(=O)N[C@@H](CCCNC(=N)N)C(=O)N[C@@H](Cc2ccccc2)C(=O)NCC(=O)N[C@@H]([C@@H](C)O)C(=O)N1)[C@@H](C)O)C(C)C)C(=O)N[C@@H](Cc1ccc(O)cc1)C(=O)N[C@@H](CCC(N)=O)C(=O)N[C@@H](Cc1ccccc1)C(=O)N[C@H](C(=O)N[C@@H](CC(=O)O)C(=O)N[C@@H](CCCCN)C(=O)N[C@@H](CC(=O)O)C(=O)N[C@@H](CCCCN)C(=O)N[C@@H](CC(=O)O)C(=O)N[C@@H](CC(N)=O)C(=O)N[C@H](C(=O)N[C@@H](C)C(=O)N1CCC[C@H]1C(=O)N[C@@H](CCCNC(=N)N)C(=O)N[C@@H](CO)C(=O)N[C@@H](CCCCN)C(=O)N[C@H](C(=O)N[C@@H](CO)C(=O)N1CCC[C@H]1C(=O)N[C@@H](CCC(N)=O)C(=O)NCC(=O)N[C@@H](Cc1ccc(O)cc1)C(N)=O)[C@@H](C)CC)C(C)C)[C@@H](C)O` [Example 5, ((4R,7S,13S,16S,19R)-19-(2-((S)-2-amino-6-(17-carboxyoctadecanamido)hexanamido)acetamido)-13-benzyl-16-(3-guanidinopropyl)-7-((R)-1-hydroxyethyl)-6,9,12,15,18-pentaoxo-1,2-dithia-5,8,11,14,17-pentaazacycloicosane-4-carbonyl)-L-threonyl-ADM(23-52)] gave an Emax of 105 ± 5% and an EC50 of 17 nM.
